SMILES strings stand for the structures.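 These data come from cells grown in 96-well plates and exposed to compound for 48 hours at five concentrations. GI50 = concentration required for 50% inhibition of growth. TGI: total growth inhibition.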

Consider 6 molecules from PubChem BioAssay (NCI).

What all share (experiment): NCI-60 cell line screen, 48 h
Assay [1] relates to T-47D breast.
Assay [2] deals with HL-60(TB) leukemia.
Assay [3] deals with OVCAR-5 ovarian.
Assay [4] concerns SN12C renal.
Assay [5] concerns SNB-75 CNS.
The subject of assay [6] is NCI-H460 lung.
In assay [7] the test system is NCI-H23 lung.
Assay [8] concerns SR leukemia.
The subject of assay [9] is SK-OV-3 ovarian.
Assay [10] concerns MDA-MB-231 breast.

Consider `CCOc1ncn(-c2ccc(NC(=S)Nc3cccc(O)c3)cc2)n1`, for which the TGI in [1], in [2], in [3], in assay [4], in [5] and in assay [6] was over 100 µM throughout. Further, the TGI in assay [7], in assay [8], in [9] and in assay [10] was over 100 µM in each case.

`COc1ccc(C(=O)C2CC3(CCC2(O)c2ccc(OC)cc2)CC(=O)Nc2ccccc2C3=O)cc1` (stereo not given): the TGI in assay [1], in [2], in [3], in assay [4], in [5] and in assay [6] was over 100 µM throughout. Besides, the TGI in [7], in assay [8], in assay [9] and in assay [10] was over 100 µM in each case.

`CO/C(=N\N=C(/C)C(F)(F)F)c1ccncc1`: the TGI in assay [1], in [2], in assay [3], in [4], in [5] and in assay [6] was over 100 µM in each case. In addition, the TGI in assay [7], in [8], in assay [9] and in [10] was over 100 µM each time.

Regarding `COC[C@H]1C(=O)NCC(=O)N2NCCC[C@H]2C(=O)N(O)[C@H](C)C(=O)O[C@@H](C(C)C)[C@H](NC(=O)[C@](C)(O)[C@]2(O)CC[C@@H](CC(C)C)[C@H](C)O2)C(=O)N2NCCC[C@@H]2C(=O)N1O`, the GI50 was 0.0149 µM in [1]; 0.0151 µM in [2]; 0.015 µM in assay [3]; under 0.0126 µM in assay [4]; under 0.01 µM in assay [5]; under 0.01 µM in assay [6]. The GI50 was under 0.01 µM in assay [7], 0.0118 µM in [8], 0.0163 µM in assay [9] and under 0.0111 µM in [10]. Moreover, the TGI in assay [1] stood at 0.0332 µM; in assay [2], 0.0399 µM; in assay [3], 0.0333 µM; in assay [4], 0.0411 µM; in [5] it was 0.011 µM; in assay [6] it was 0.0125 µM. The TGI in [7] stood at 0.0364 µM; in assay [8], 0.0555 µM; in assay [9], 0.0306 µM; in assay [10], 0.0432 µM.

As for `ClCCN(CCCl)Cc1ccc(Nc2ccnc3cc(Cl)ccc23)cc1`, the GI50 in assay [1] was 1.09 µM; in assay [2] it was 0.403 µM; in assay [3], 2.57 µM; in [4], 0.48 µM; in [5] it was 1.34 µM; in [6], 0.402 µM. Further, the GI50 is 1.33 µM in assay [7], 0.269 µM in assay [8], 1.44 µM in assay [9] and 1.66 µM in [10]. Also, the TGI was determined as 3.69 µM in [1]; 3.07 µM in assay [2]; 6.66 µM in [3]; 4.02 µM in assay [4]; 3.72 µM in [5]; 10.7 µM in assay [6]. Also, the TGI in [7] is 4.52 µM; in assay [8], 2.78 µM; in [9], 4.52 µM; in assay [10] it was 3.49 µM.

Take `COc1ccc2c(O)c3[n+](cc2c1OC)CCc1cc2c(cc1-3)OCO2`: the TGI in assay [1], in assay [2], in assay [3], in [4], in [5] and in assay [6] was over 100 µM each time. Further, the TGI in assay [7], in [8], in [9] and in [10] was over 100 µM in each case.
